Values joined by “and” are separate entries in the source; they are usually repeats but may differ in a detail not shown here. Equal entries are not always repeated.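 Assay format: 96-well plates, 48-hour exposure. GI50: concentration for 50% inhibition of growth. The concentration for full growth arrest is given as TGI.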
Legend:
Assay in all cases: growth of human tumour cells (NCI), 48 h
HCT-116 colon = tested on: HCT-116 colon
HCT-15 colon = tested on: HCT-15 colon
HT29 colon = tested on: HT29 colon
MDA-MB-435 = tested on: MDA-MB-435
NCI-H226 lung = tested on: NCI-H226 lung
RPMI-8226 leukemia = tested on: RPMI-8226 leukemia
SF-295 CNS = tested on: SF-295 CNS
SK-MEL-28 melanoma = tested on: SK-MEL-28 melanoma
SK-OV-3 ovarian = tested on: SK-OV-3 ovarian
UACC-62 melanoma = tested on: UACC-62 melanoma
RXF 393 renal = tested on: RXF 393 renal

Compound `COc1ccc(S(=O)(=O)N2C(=O)CCC2C(=O)NC(N)=O)cc1` (stereo unspecified) has a TGI (HCT-116 colon) greater than 100 µM, a TGI (HCT-15 colon) greater than 100 µM and a TGI (HT29 colon) greater than 100 µM. It also gave a TGI (MDA-MB-435) greater than 100 µM, a TGI (NCI-H226 lung) greater than 100 µM and a TGI (RPMI-8226 leukemia) greater than 100 µM. The TGI (SF-295 CNS) was greater than 100 µM, the TGI (SK-MEL-28 melanoma) was greater than 100 µM and the TGI (SK-OV-3 ovarian) was greater than 100 µM. For the same compound, the TGI (UACC-62 melanoma) was greater than 100 µM.
In the case of `CSc1nc(-c2ccc(Cl)cc2)c(C#N)c(=O)n1C1OC(COC(C)=O)C(OC(C)=O)C(OC(C)=O)C1OC(C)=O` (stereo unspecified), the GI50 (HCT-116 colon) is reported as 23.1 µM and > 100 µM, the TGI (HCT-116 colon) is reported as greater than 100 µM and the TGI (HCT-15 colon) is reported as greater than 100 µM. For the same compound, the GI50 (HT29 colon) was 29.3 µM and > 100 µM, the TGI (HT29 colon) was greater than 100 µM and the TGI (NCI-H226 lung) was greater than 100 µM. For the same compound, the GI50 (RPMI-8226 leukemia) was 34.6 µM and > 100 µM, the TGI (RPMI-8226 leukemia) was greater than 100 µM and the GI50 (RXF 393 renal) was 10.6 µM and > 100 µM. For the same compound, the TGI (RXF 393 renal) was 25.6 µM and > 100 µM, the GI50 (SF-295 CNS) was 14.8 µM and > 100 µM and the TGI (SF-295 CNS) was 39 µM and > 100 µM. The GI50 (SK-MEL-28 melanoma) was 27.6 µM and > 100 µM, the TGI (SK-MEL-28 melanoma) was greater than 100 µM and the GI50 (SK-OV-3 ovarian) was 25.3 µM and > 100 µM. The TGI (SK-OV-3 ovarian) was 70.3 µM and > 100 µM, the GI50 (UACC-62 melanoma) was 30.5 µM and > 100 µM and the TGI (UACC-62 melanoma) was greater than 100 µM.
In the case of `CSC12c3cc(C)n(-c4ccc([N+](=O)[O-])cc4)c3CC(C)(C)CN1C(=O)C2Oc1ccccc1` (stereo unspecified), the TGI (HCT-116 colon) is reported as greater than 100 µM, the TGI (HCT-15 colon) is reported as greater than 100 µM and the TGI (MDA-MB-435) is reported as greater than 100 µM. The TGI (NCI-H226 lung) was greater than 100 µM, the TGI (RPMI-8226 leukemia) was greater than 100 µM and the TGI (RXF 393 renal) was greater than 100 µM. It also gave a TGI (SF-295 CNS) greater than 100 µM, a TGI (SK-MEL-28 melanoma) greater than 100 µM and a TGI (UACC-62 melanoma) greater than 100 µM.
`Oc1c(Br)cc(/C=C/c2ccnc(/C=C/c3cc(Br)c(O)c(Br)c3)c2)cc1Br` showed a TGI (HCT-116 colon) of 30.7 µM, a TGI (HCT-15 colon) of 73 µM and a TGI (HT29 colon) of 40.2 µM. It also gave a TGI (MDA-MB-435) of 63 µM, a TGI (RPMI-8226 leukemia) of 51.6 µM and a TGI (SF-295 CNS) greater than 100 µM. For the same compound, the TGI (SK-MEL-28 melanoma) was greater than 100 µM, the TGI (SK-OV-3 ovarian) was greater than 100 µM and the TGI (UACC-62 melanoma) was 73.8 µM.
`Cc1ccc2c(=O)cc(-c3sccc3C)[nH]c2n1` was tested, and the TGI (HCT-116 colon) was 18.7 µM, the TGI (HCT-15 colon) was greater than 40.6 µM and the TGI (HT29 colon) was 8.72 µM. It also gave a TGI (MDA-MB-435) greater than 100 µM, a TGI (NCI-H226 lung) of 6.55 µM and a TGI (RXF 393 renal) greater than 20.1 µM. For the same compound, the TGI (SF-295 CNS) was greater than 100 µM, the TGI (SK-OV-3 ovarian) was greater than 100 µM and the TGI (UACC-62 melanoma) was greater than 72 µM.
`COc1ccc(CNc2cnc3cc(N)ccc3n2)cc1` showed a TGI (HCT-116 colon) greater than 100 µM, a TGI (HCT-15 colon) greater than 100 µM and a TGI (HT29 colon) greater than 100 µM. For the same compound, the TGI (NCI-H226 lung) was greater than 100 µM, the TGI (RPMI-8226 leukemia) was greater than 100 µM and the TGI (RXF 393 renal) was greater than 100 µM. It also gave a TGI (SF-295 CNS) greater than 100 µM, a TGI (SK-MEL-28 melanoma) greater than 100 µM and a TGI (UACC-62 melanoma) greater than 100 µM.
Work on `COc1ccc2c(c1)Cc1c(NCCN(C)C)ccc(C(=O)NCCCN(C)CCCNC(=O)c3ccc(NCCN(C)C)c4c3Nc3ccc(OC)cc3C4)c1N2` yielded a TGI (HCT-116 colon) of 0.239 µM, a TGI (HCT-15 colon) greater than 74.3 µM and a TGI (HT29 colon) of 0.566 µM. It also gave a TGI (MDA-MB-435) of 0.191 µM, a TGI (NCI-H226 lung) of 0.241 µM and a TGI (RXF 393 renal) of 1.85 µM. For the same compound, the TGI (SF-295 CNS) was 3.52 µM, the TGI (SK-MEL-28 melanoma) was 1.46 µM and the TGI (SK-OV-3 ovarian) was 0.502 µM. The TGI (UACC-62 melanoma) was 0.365 µM.
With `O=C1/C(=C/c2cccc(Cl)c2)CCCc2ccccc21` the TGI (HCT-116 colon) was 26.1 µM, the TGI (HCT-15 colon) was 39.2 µM and the TGI (HT29 colon) was 30.9 µM. For the same compound, the TGI (MDA-MB-435) was 31.6 µM, the TGI (NCI-H226 lung) was 30.7 µM and the TGI (RPMI-8226 leukemia) was 42.5 µM. It also gave a TGI (SF-295 CNS) of 31.6 µM, a TGI (SK-MEL-28 melanoma) of 33.6 µM and a TGI (SK-OV-3 ovarian) greater than 100 µM. For the same compound, the TGI (UACC-62 melanoma) was 27 µM.
`N#CC(c1ccccc1)N(CCCCCCN(C(=O)c1ccccc1)C(C#N)c1ccccc1)C(=O)c1ccccc1` (stereo unspecified) was tested, and the TGI (HCT-116 colon) was 83.4 µM, the TGI (HCT-15 colon) was greater than 100 µM and the TGI (HT29 colon) was greater than 100 µM. The TGI (MDA-MB-435) was 73.6 µM, the TGI (NCI-H226 lung) was greater than 100 µM and the TGI (RXF 393 renal) was greater than 100 µM. The TGI (SF-295 CNS) was greater than 100 µM, the TGI (SK-MEL-28 melanoma) was greater than 100 µM and the TGI (SK-OV-3 ovarian) was greater than 100 µM. For the same compound, the TGI (UACC-62 melanoma) was 77.7 µM.
Work on `CC(=O)Nc1ccc2c3c(cc(O)c2c1)N(C(=O)CCCC(=O)N1CC(CCl)c2c1cc(O)c1cc(NC(C)=O)ccc21)CC3CCl` (stereo unspecified) yielded a TGI (HCT-15 colon) of 11.5 µM, a TGI (MDA-MB-435) of 0.019 µM and a TGI (RPMI-8226 leukemia) of 0.0182 µM. The TGI (RXF 393 renal) was less than 0.01 µM, the TGI (SK-MEL-28 melanoma) was greater than 100 µM and the TGI (SK-OV-3 ovarian) was greater than 24.6 µM. The TGI (UACC-62 melanoma) was 0.0173 µM.
For `CO/C=C/C=C(\C#N)C(=O)OC`, the TGI (HCT-116 colon) was greater than 100 µM, the TGI (HCT-15 colon) was greater than 100 µM and the TGI (HT29 colon) was greater than 100 µM. The TGI (MDA-MB-435) was greater than 100 µM, the TGI (NCI-H226 lung) was greater than 100 µM and the TGI (RPMI-8226 leukemia) was greater than 100 µM. For the same compound, the TGI (SF-295 CNS) was greater than 100 µM, the TGI (SK-MEL-28 melanoma) was greater than 100 µM and the TGI (SK-OV-3 ovarian) was greater than 100 µM. It also gave a TGI (UACC-62 melanoma) greater than 100 µM.
Work on `C=CC(=O)Nc1ccc(NC(=O)C=C)c2c1C(=O)c1ccccc1C2=O` yielded a TGI (HCT-116 colon) greater than 100 µM, a TGI (HCT-15 colon) greater than 100 µM and a TGI (HT29 colon) greater than 100 µM. For the same compound, the TGI (RPMI-8226 leukemia) was 21.2 µM, the TGI (SF-295 CNS) was 49.8 µM and the TGI (SK-MEL-28 melanoma) was greater than 100 µM. The TGI (UACC-62 melanoma) was 90.8 µM.
`CCOC(=O)c1nc2cc(C(F)(F)F)ccc2nc1Oc1ccc(C#N)cc1` gave a TGI (HCT-116 colon) greater than 100 µM, a TGI (HCT-15 colon) greater than 100 µM and a TGI (MDA-MB-435) greater than 100 µM. It also gave a TGI (NCI-H226 lung) greater than 100 µM, a TGI (RPMI-8226 leukemia) greater than 100 µM and a TGI (RXF 393 renal) greater than 100 µM. It also gave a TGI (SF-295 CNS) greater than 100 µM, a TGI (SK-MEL-28 melanoma) greater than 100 µM and a TGI (UACC-62 melanoma) greater than 100 µM.
In the case of `C=C(C)C12CC3CC(/C(=N/O)C(C1)/C3=N\O)[C@@]2(C)O` (stereo partly specified), the TGI (HCT-116 colon) is reported as greater than 100 µM, the TGI (HCT-15 colon) is reported as greater than 100 µM and the TGI (HT29 colon) is reported as greater than 100 µM. The TGI (NCI-H226 lung) was greater than 100 µM, the TGI (RPMI-8226 leukemia) was greater than 100 µM and the TGI (RXF 393 renal) was greater than 100 µM. For the same compound, the TGI (SF-295 CNS) was greater than 100 µM, the TGI (SK-MEL-28 melanoma) was greater than 100 µM and the TGI (SK-OV-3 ovarian) was greater than 100 µM. For the same compound, the TGI (UACC-62 melanoma) was greater than 100 µM.
Work on `Cc1cc(S(=O)(=O)NC2=NCc3nc4ccccc4n32)c(S)cc1Cl` yielded a TGI (HCT-116 colon) of 34.5 µM, a TGI (HCT-15 colon) of 59.1 µM and a TGI (MDA-MB-435) of 82.8 µM. For the same compound, the TGI (NCI-H226 lung) was 40.9 µM, the TGI (RPMI-8226 leukemia) was 47.6 µM and the TGI (RXF 393 renal) was 33 µM. It also gave a TGI (SF-295 CNS) of 37.6 µM, a TGI (SK-MEL-28 melanoma) greater than 100 µM and a TGI (UACC-62 melanoma) of 33.3 µM.
With `CSC1=N/C(=C\c2ccc(Cl)cc2)C(=O)N1CN1CCCCC1` the TGI (HCT-116 colon) was greater than 100 µM, the TGI (HCT-15 colon) was greater than 100 µM and the TGI (HT29 colon) was greater than 100 µM. It also gave a TGI (MDA-MB-435) greater than 100 µM, a TGI (NCI-H226 lung) greater than 100 µM and a TGI (RPMI-8226 leukemia) greater than 100 µM. For the same compound, the TGI (SF-295 CNS) was greater than 100 µM, the TGI (SK-MEL-28 melanoma) was greater than 100 µM and the TGI (SK-OV-3 ovarian) was greater than 100 µM. It also gave a TGI (UACC-62 melanoma) greater than 100 µM.

— PubChem BioAssay (NCI)
